Assay results: US20210275545A1, “METHOD OF TREATING CANCER PREFERABLY CHARACTERIZED BY EXPRESSION OF A FUSION PROTEIN COMPRISING A MEMBER OF THE E-TWENTY-SIX FAMILY BY ADMINISTERING AN AGENT THAT INHIBITS THE SYNTHESIS AND/OR ACTIVITY OF CORTISOL” (Yeda Research and Development Co. Ltd., priority 2018, published 2021)

Tests used:
GR and EWS-FLI1 [1] = target: T1, GR and EWS-FLI1 (Homo sapiens, UniProt P04150); settings: A673 cells
Protocol: Images were processed using the Zeiss ZEN2011 software. […] Bars, 20 μm.
(§1) Proximity ligation assay (PLA), extraction of cells, co-immunoprecipitation and cell migration/invasion assays: These assays were performed exactly as recently reported.

A673 cells = experiment: Apoptosis assay (annexinV/7-AAD); assay type: cell-based; settings: RU486 10 or 20 μM, 48 hours
Protocol: FIGS. 12A-F: Inhibition of GR activity decreases growth and survival of Ewing's sarcoma cells. […] (B) Increasing concentrations of […], a non-steroidal antagonist of GR [54], were incubated with A673 cells as in A and the MTT assay was performed in triplicates. *, p<0.05. […] Note that the abundance of the endogenous form of FLI1 is much weaker than that of EWS-FLI1. […] MTT assays were performed after 48 hours of treatment. The assay was repeated twice in quadruplets. **, p<0.01, ***, p<0.001. (E) A673 cells were seeded in 100-mm dishes. […] Shown are results of an apoptosis assay performed using an annexinV/7-AAD kit (BioLegend, Inc.). Quantification of the fractions of early and late apoptotic cells is shown in bar plots. The experiment was repeated twice. (F) The indicated ES cells were sparsely seeded in 6-well plates. […] Ten days later, cells were fixed and stained with crystal violet to visualize emerging colonies. Photos are shown along with bar plots showing the quantification of colonies in 5 non-overlapping microscope fields. The experiment was repeated twice. *, p≤0.05; **, p≤0.001. Apoptosis assays: Assays were performed using the FITC Annexin V Apoptosis Detection Kit with 7-AAD (from BioLegend) and analyzed using a BD FACSAria Fusion instrument controlled by BD FACS Diva software v8.0.1 (BD Biosciences).

GR and EWS-FLI1 [2] = target: T1, GR and EWS-FLI1; settings: DEX 1 μM, RU486 1 μM, 60 minutes
Protocol: (A) CHLA9 cells were seeded in 100-mm dishes. Once they reached sub-maximal density, cells were starved overnight for serum factors. […] Cells were then extracted and the lysates were processed for co-immunoprecipitation assays using an antibody against GR followed by immunobloting that used an antibody against EWS. The image shown is representative of 3 biological replicates. Signals were quantified and normalized (see numbers below each lane). EB, empty beads. […] (C-D) CHLA9 cells were seeded on the upper faces of either Transwell migration chambers or Matrigel-coated invasion chambers, and further incubated for 20 hours in full medium. Control siRNAs or siRNAs specific to either GR or EWS-FLI1 were added to cells 24 hours prior to seeding, and both cell migration and invasion were measured 20 hours later. […] Cells that reached the lower faces of the chambers were fixed and stained. Shown are representative images of stained cells. The bar plots show quantification, using ImageJ, of the area covered by cells. *, p≤0.05, **, p≤0.005. Bars, 500 μm. […] The bar plots show quantification, using ImageJ, of the area covered by cells. *, p≤0.05, **, p≤0.005. […]
(A) RD-ES cells were seeded in 100-mm dishes. […] Cell migration/invasion was determined 20 hours later.

GR and FLI1 = GR and FLI1 (Homo sapiens, UniProt P04150); settings: HEK-293T cells, treated for 60 minutes
Protocol: (A) The scheme presents the full length Gaussia luciferase protein, along with either the amino-terminal segment (Gluc1), which was fused to an ETS family transcription factor, or the carboxyl terminal segment (Gluc2), which was fused to GR. Amino acid numbers are indicated. cDNAs encoding most members of the ETS family (16 members altogether) were cloned downstream to Gluc1. […] (B) HEK-293T cells (6×10^3) were seeded in 96-well plates. On the next day, cells were transfected with combinations of the Gluc1 plasmid, encoding a fused ETS family member, and the Gluc2 plasmid encoding a fused full-length GR. […] Cells were then lysed and luminescence was determined in biological triplicates. […] (D and E) HEK-293T cells were seeded in 100-mm dishes. Once they reached sub-maximal density (70%), cells were starved overnight for serum factors. […] Cell extracts were then processed for co-immunoprecipitation assays, in which the endogenous FLI1 or ERG protein was immunoprecipitated using a specific antibody, and immunoblotting was performed using an antibody against GR. EB, empty beads; C, solvent control. Images shown are representative of three biological replicates.
as §1

[3] = system: CHLA9, A673 and RD-ES cells; experiment: MTT cell viability assay, three ES lines; assay type: cell-based; settings: increasing concentrations, 24 hours
Protocol: FIGS. 12A-F: Inhibition of GR activity decreases growth and survival of Ewing's sarcoma cells. […] (B) Increasing concentrations of D06, a non-steroidal antagonist of GR [54], were incubated with A673 cells as in A and the MTT assay was performed in triplicates. *, p<0.05. […] Note that the abundance of the endogenous form of FLI1 is much weaker than that of EWS-FLI1. […] MTT assays were performed after 48 hours of treatment. The assay was repeated twice in quadruplets. **, p<0.01, ***, p<0.001. (E) A673 cells were seeded in 100-mm dishes. […] Shown are results of an apoptosis assay performed using an annexinV/7-AAD kit (BioLegend, Inc.). Quantification of the fractions of early and late apoptotic cells is shown in bar plots. The experiment was repeated twice. (F) The indicated ES cells were sparsely seeded in 6-well plates. […] Ten days later, cells were fixed and stained with crystal violet to visualize emerging colonies. Photos are shown along with bar plots showing the quantification of colonies in 5 non-overlapping microscope fields. The experiment was repeated twice. *, p≤0.05; **, p≤0.001.
According to recent reports, the EWS-FLI1 fusion promotes cell cycle progression and inhibits apoptosis. […] Next, siRNA specific to the FLI1 region of the fusion (FIG. 12C) were analyzed in A673 cells. […]

T1 sequence (P04150 whole entry): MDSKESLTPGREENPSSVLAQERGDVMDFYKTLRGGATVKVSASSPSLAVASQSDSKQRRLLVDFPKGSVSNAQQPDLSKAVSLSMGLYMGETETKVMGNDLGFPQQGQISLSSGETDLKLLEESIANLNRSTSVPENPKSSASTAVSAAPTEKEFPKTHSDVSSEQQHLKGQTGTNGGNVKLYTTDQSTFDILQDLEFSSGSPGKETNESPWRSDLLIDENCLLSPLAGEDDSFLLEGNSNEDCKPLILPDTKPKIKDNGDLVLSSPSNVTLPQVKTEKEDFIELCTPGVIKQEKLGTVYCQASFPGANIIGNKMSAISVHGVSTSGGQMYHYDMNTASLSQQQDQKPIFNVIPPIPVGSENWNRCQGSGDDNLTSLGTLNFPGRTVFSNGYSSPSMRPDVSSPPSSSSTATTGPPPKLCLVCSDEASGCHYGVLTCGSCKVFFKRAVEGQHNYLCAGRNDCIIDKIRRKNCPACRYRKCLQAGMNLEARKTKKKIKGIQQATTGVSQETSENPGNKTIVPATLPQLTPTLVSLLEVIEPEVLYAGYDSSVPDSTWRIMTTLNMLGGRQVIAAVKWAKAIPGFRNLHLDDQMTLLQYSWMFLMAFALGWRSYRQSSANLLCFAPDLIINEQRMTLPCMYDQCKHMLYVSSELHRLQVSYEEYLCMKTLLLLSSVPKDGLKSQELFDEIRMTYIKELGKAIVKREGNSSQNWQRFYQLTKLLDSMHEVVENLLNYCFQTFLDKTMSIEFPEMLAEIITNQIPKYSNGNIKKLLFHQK
GR and FLI1, sequence (P04150 whole entry, the tested form may be a part): as the sequence (P04150 whole entry) above

CC#C[C@]1(O)CC[C@H]2[C@@H]3CCC4=CC(=O)CCC4=C3[C@@H](c3ccc(N(C)C)cc3)C[C@@]21C [RU486, Mifepristone]
GR/EWS-FLI1 protein-protein interactions (PLA) (GR and EWS-FLI1 [1]): blocked
early apoptosis (fraction of cells) (A673 cells; DEX 1 μM): increased
late apoptosis (fraction of cells) (A673 cells): increased
GR/EWS-FLI1 co-immunoprecipitation, CHLA9 cells (GR and EWS-FLI1 [2]; CHLA9 cells): completely
GR/EWS-FLI1 co-immunoprecipitation, RD-ES cells (GR and EWS-FLI1 [2]; RD-ES cells): partially
co-immunoprecipitation of GR and FLI1 (GR and FLI1): strongly reduced
survival of ES cell lines (MTT) [3]: dose-dependent reduction
